Where two headings read alike, the source gives them in different places.
Legend:
[1] = target: T1, MSPa (malate synthase G from P. aeruginosa) (Pseudomonas aeruginosa, UniProt Q9I636); test: Inhibition of purified MSPa enzymatic activity; format: biochemical; details: for inhibition at 75 µM: read-out: Enzyme Inhibition (%) at 75 µM MSPa
T1 construct: made in house
Experimental: The enzymatic activity of purified ICLPa and MSPa was assayed essentially as previously described. Compounds were added to the reaction mixtures (minus substrates) and incubated for 5 min at 37 °C. The enzyme concentration in the reaction mixtures was 170 nM for ICL and 25 nM for MS (based on the concentration of the monomer in each case). […] The reactions were initiated by the addition of pH-adjusted substrates, and the initial rates were recorded as A324 nm (for ICLPa) and A412 nm (for MSPa) using a Biospectrometer (Eppendorf, Stevenage, UK). Substrate turnover was calculated from the molar extinction coefficient of the assay products: Glyoxylate-phenylhydrazone (16,800/M/cm) for ICLPa and 2-nitro-5-thiobenzoic acid (14,150/M/cm) for MSPa.
All data fitting was performed with GraphPad Prism version 7.04 (GraphPad Software, Inc., La Jolla, CA, USA). The solid lines are the result of fitting the data to the equations denoted in relevant experimental sections. IC50 values were determined by a nonlinear fit using the equation for sigmoidal dose-response with variable slope. In all graphs, unless otherwise stated, the data points are the mean of experimental triplicates, and all error bars correspond to ± standard deviation.

[2] = Metabolic stability in rat liver microsomes; format: in vitro ADME; details: RLM; for Clh, int (predicted hepatic clearance): scaled; for Clh (predicted in vivo hepatic clearance): well-stirred model; for half-life at 0.5 µM / microsomal CLint at 0.5 µM: rat, pooled rat liver microsomes, pH 7.4
Experimental: The metabolic stability of the test compounds was measured following incubation with liver microsomes from humans (BioIVT, lot no. IHG; West Sussex, UK) and rats (BD Gentest, lot no. 60614; BD Biosciences, Milan, Italy). Verapamil and dextromethorphan were used as positive controls. An automated incubation procedure was performed using the RSP Freedom Evo liquid dispensing and incubation system (TECAN, Milan, Italy). Five microliters of 50 µM test compound or positive control were added to 445 µL of microsomal suspension in 96 deep-well plates. The microsomal preparation comprised 0.56 mg/mL of pooled and homogenized liver microsomes suspended in 50 mM potassium phosphate buffer, pH 7.4. After 5 min at 37 °C, the reactions were initiated by adding 50 µL of prewarmed NADPH regenerating buffer to each sample. The regenerating buffer comprised a 2% NaHCO3 solution containing 1.7 mg NADP, 7.8 mg glucose-6-phosphate, and 6 units of glucose-6-phosphate dehydrogenase per mL. The samples were incubated at 37 °C, and 50 µL aliquots were withdrawn after 0, 3, 10, 15, 30, and 45 min and quenched in 150 µL acetonitrile. […] The analytical column was a Synergi “Max-RP” reverse phase C12 with TMS endcapping (30 mm × 2 mm, 4 µm particle size) (Phenomenex, Inc., Bologna, Italy). The column temperature was maintained at 60 °C. […] Analytes were quantified in multiple reaction-monitoring mode. Peak areas were integrated using Integrator Software from Agilent (Agilent Technologies, Milan, Italy) and were divided by the peak areas of the internal standard. The percentage of parent compound remaining was calculated by normalizing the peak area ratio of the parent compound to that of the internal standard at time 0. The half-lives of compound metabolism were derived from the linear portion of the slope of ln percent parent compound vs time. Intrinsic clearance in liver microsomes was estimated from: (1) Clint=k×(V/M) (2) Clh, int=(Clint (×1st Scaling factor)×2^ndScaling factor) (3) Clh=(Q×Clh, int)/(Q+Clh, int).
Here, k is the rate of depletion of the parent compound ([…]), V is the volume of the reaction mixture in mL, and M is the concentration of microsomal protein (in mg/mL). The amounts of protein in the incubations were scaled relative to the average liver- and body-mass of each species to obtain intrinsic hepatic clearance (Clh, int, in […]) (Table S3). These scaling factors were used along with the average hepatic blood flow (Q, in […]) of each species to obtain in vivo correlations (Clh, in mL/min/kg) using the well-stirred model.

CYP2C9 = target: T2, CYP2C9 (Homo sapiens, UniProt P11712); test: CYP450 inhibition in HLM, diclofenac probe; format: in vitro ADME; details: read-out: IC50 CYP450 2C9
T2 construct: pooled human liver microsomes; tissue BioIVT; host or cells: pooled human liver microsomes
T2 sequence (P11712 whole entry): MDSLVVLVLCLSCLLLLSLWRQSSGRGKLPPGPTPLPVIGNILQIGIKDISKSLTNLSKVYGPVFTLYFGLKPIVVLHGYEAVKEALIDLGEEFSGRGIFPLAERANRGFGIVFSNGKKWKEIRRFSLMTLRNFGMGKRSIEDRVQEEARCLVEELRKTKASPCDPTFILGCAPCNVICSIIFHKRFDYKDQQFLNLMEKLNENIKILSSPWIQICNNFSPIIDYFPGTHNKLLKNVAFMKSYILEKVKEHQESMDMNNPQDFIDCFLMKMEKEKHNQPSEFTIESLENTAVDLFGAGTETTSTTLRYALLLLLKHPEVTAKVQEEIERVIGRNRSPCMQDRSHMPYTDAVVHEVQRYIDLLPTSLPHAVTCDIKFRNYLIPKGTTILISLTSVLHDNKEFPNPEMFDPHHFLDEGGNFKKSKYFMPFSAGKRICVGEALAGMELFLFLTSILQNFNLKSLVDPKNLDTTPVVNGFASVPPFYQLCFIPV
Experimental: (§1) The CYP450 inhibition was determined by measuring the reaction products of known CYP450 substrates (probes). Probe solutions were prepared by diluting stock solutions with buffer (100 mM Tris-HCl, pH 7.5, and 0.5 mM EDTA) to the final indicated concentrations (Figure 5), and adding 180 µL of pooled human liver microsomes (20 mg/mL) (BioIVT, West Sussex, UK). These probe solutions were dispensed (195 µL) into clear 96-well plates with low evaporation lids (Corning, Turin, Italy) and the plates were prewarmed to 37 °C in a thermomixer (Hamilton, Agrate Brianza, Italy). Next, 5 µL of the test compound or appropriate positive control (Table S4) were added to the wells and the plates were incubated for a further 5 min. Following this, the reactions were started by adding NADPH regenerating solution (50 µL, see previous Section 4.7) to each well. CYP450 mixtures containing phenacetin, rosiglitazone, mephenytoin, atorvastatin, and nifedipine probes were incubated for 10 min at 37 °C, whereas those with midazolam and diclofenac were incubated for 5 min at 37 °C. Aliquots (100 µL) from each reaction mixture were quenched in 200 µL acetonitrile, and the mixtures were sedimented at 3000 ×g for 10 min at 4 °C. The supernatants were diluted in water containing 5 ng/mL Rolipram as an internal standard for LC-MS/MS analysis. All incubations were carried out in triplicate.
(§2) Probe products were analyzed on an API4000 Qtrap mass spectrometer (Applied Biosystems/MDS SCIEX, Monza, Italy) coupled with an Acquity UPLC system (Waters, Milan, Italy) and a CTC-PAL auto-injector (CTC Analytics AG, Zwingen, Switzerland). […] The column temperature was maintained at 60 °C. The injected sample volume was 10 µL, and analytes were eluted at a flow rate of 800 µL/min in a gradient of eluent A (water with 0.1% formic acid) and eluent B (acetonitrile with 0.1% formic acid). […] The analytes were quantified in multiple reaction-monitoring mode. Data were processed, and the percentage control activity was calculated based on a comparison between the ratio of the sample peak area and the peak area.

CYP3A4 = target: T3, CYP3A4 (Homo sapiens, UniProt P08684); test: CYP450 inhibition in HLM, atorvastatin, nifedipine and midazolam probes; format: in vitro ADME
T3 construct: pooled human liver microsomes; tissue BioIVT; host or cells: pooled human liver microsomes
T3 sequence (P08684 whole entry): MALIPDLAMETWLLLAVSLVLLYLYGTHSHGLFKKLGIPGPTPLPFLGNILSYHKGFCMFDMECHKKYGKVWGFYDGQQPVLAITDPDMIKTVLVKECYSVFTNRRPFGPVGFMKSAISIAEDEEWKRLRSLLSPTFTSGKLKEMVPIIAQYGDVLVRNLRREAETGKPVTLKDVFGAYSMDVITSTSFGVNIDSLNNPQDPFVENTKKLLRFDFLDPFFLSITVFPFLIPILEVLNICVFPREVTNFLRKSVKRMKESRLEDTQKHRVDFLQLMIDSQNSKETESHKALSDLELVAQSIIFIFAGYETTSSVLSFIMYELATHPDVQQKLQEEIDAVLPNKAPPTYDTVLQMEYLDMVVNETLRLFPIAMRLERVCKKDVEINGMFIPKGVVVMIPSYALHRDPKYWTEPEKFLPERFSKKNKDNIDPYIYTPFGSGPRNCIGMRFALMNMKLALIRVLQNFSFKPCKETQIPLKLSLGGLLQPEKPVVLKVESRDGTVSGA
Experimental: All incubations were carried out in triplicate.
The column temperature was maintained at 60 °C. […] The column temperature was maintained at 45 °C. […] The analytes were quantified in multiple reaction-monitoring mode.

CYP450 isozymes = test: CYP450 inhibition in HLM, whole isozyme panel; format: in vitro ADME, human; details: over the concentration range tested
Experimental: as §1, §2

[3] = atorvastatin probe, read-out: IC50 CYP450 3A4-ATR
[4] = midazolam probe, read-out: IC50 CYP450 3A4- MDZ
[5] = nifedipine probe, read-out: IC50 CYP450 3A4-NIF

T1 sequence (Q9I636 whole entry): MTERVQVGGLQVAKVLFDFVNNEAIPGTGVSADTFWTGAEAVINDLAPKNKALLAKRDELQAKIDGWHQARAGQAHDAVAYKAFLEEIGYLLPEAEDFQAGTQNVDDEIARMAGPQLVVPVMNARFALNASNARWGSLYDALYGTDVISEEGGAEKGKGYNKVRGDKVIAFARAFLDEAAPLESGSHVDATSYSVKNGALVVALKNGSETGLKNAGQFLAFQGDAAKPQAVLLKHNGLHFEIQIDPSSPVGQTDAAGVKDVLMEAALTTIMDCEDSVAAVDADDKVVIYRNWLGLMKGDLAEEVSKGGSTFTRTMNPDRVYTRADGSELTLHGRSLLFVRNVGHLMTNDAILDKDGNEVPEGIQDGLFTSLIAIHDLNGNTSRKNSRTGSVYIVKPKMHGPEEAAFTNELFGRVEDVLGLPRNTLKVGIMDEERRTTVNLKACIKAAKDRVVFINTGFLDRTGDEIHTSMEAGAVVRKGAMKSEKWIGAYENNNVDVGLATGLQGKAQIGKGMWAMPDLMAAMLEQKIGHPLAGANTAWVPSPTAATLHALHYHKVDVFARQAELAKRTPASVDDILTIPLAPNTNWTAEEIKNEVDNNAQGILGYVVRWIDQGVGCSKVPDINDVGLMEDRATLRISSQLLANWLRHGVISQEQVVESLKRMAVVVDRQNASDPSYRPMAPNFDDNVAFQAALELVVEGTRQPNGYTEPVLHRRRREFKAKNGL

Row | SMILES | IC50 [1] [µM] | Enzyme Inhibition (%) at 75 µM MSPa ([1]; 75 µM compound) [%] | inhibition at 75 µM ([1]; 75 µM compound) [%] | Clh, int (predicted hepatic clearance) [2] [mL/min/kg] | Clh (predicted in vivo hepatic clearance) [2] [mL/min/kg] | half-life at 0.5 µM [2] [min] | microsomal CLint at 0.5 µM [2] [µL/min/mg] | IC50 (CYP2C9) [µM] | IC50 (CYP3A4; [3]) [µM] | IC50 (CYP3A4; [4]) [µM] | IC50 (CYP3A4; [5]) [µM] | inhibitory drug–drug interactions (CYP450 inhibition) (CYP450 isozymes)
1 | CC(C)(C)OC(=O)/N=C(\NC(=O)OC(C)(C)C)Nc1cc(Cl)ccn1 [SB002] | 4.5 | 94.5 | > 90 | 62.99 | 36.18 | 51 | 27.3 | > 100 | > 100 | > 100 | > 100 | no major inhibitory drug–drug interactions
2 | Nc1cc(Cl)ccn1 [Compound 2-AP, 2-amino-4-chloropyridine, reference compound] | > 75 | – | 18.2 | 14.63 | 12.48 | 220 | 6.33 | > 100 | – | > 100 | – | no major inhibitory drug–drug interactions
3 | CC(C)(C)OC(=O)/N=C(\NC(=O)OC(C)(C)C)Nc1cc(C#N)ccn1 [SB023] | 14.5 | – | 90.4 | 124.58 | 50.53 | 25.8 | 53.9 | > 100 | > 100 | > 100 | > 100 | no major inhibitory drug–drug interactions

From article PMC7177833, “2-Aminopyridine Analogs Inhibit Both Enzymes of the Glyoxylate Shunt in Pseudomonas aeruginosa” (International Journal of Molecular Sciences, 2020)
